Reference: patent publication US10780083B1, “Charged ion channel blockers and methods for use” (Nocion Therapeutics, Inc., priority 2019, dated 2020)

Assay: PAMPA membrane permeability assay
Type: in vitro ADME
Conditions: pH 7.4 buffer, incubated for 4 hours, passive diffusion
Procedure: The PAMPA assay (pION, Inc., Woburn Mass.) was used to determine the ability of compounds of the invention to cross an artificial lipid membrane by passive diffusion. Test compounds were dissolved in DMSO (10 mM) and diluted 200-fold in buffer (pION Inc., pH 7.4) to provide 50 uM stock solutions. Buffer (150 μL) was added to a UV blank plate and stock solutions (150 μL) were transferred to a UV reference plate. The blank and reference spectrum were read using a spectrophotometer. Stock solutions (200 μL) were added to the donor plate of the PAMPA sandwich plate and an accept plate painted with GIT lipid (pION Inc, 5 μL) was placed on top. Buffer (200 μL) was added to the acceptor plate and the PAMPA sandwich plate was incubated for 4 hours. Aliquots (150 μL) from the acceptor plate were added to a UV plate and read as acceptor spectrum. Aliquots (150 μL) of the donor solutions were added to a UV analysis plate and read as donor spectrum. The permeability coefficient of test compounds was calculated using PAMPA Explorer™ software (version 3.5.0.4) based on the AUC of the reference plate, the donor plate, and the acceptor plate.

SMILES	Papp at 4 h, 50 uM [×10⁻⁶ cm/s]
Cc1cccc(C)c1NC(=O)C[N+]1(Cc2ccccc2)CCCCCCC1.[Br-] [6A′, 1-benzyl-1-(2-((2,6-dimethylphenyl)amino)-2-oxoethyl) azocan-1-ium bromide]	< 1
CCC(C(=O)Nc1c(C)cccc1C)[N+]1(Cc2ccccc2)CCCCCC1.[Br-] (centres unmarked) [5A′, 1-benzyl-1-(1-((2,6-dimethylphenyl)amino)-1-oxobutan-2-yl) azepan-1-ium bromide]	< 1
CCC(C(=O)Nc1c(C)cccc1C)[N+]1(Cc2ccccc2)CCCCC1.[Br-] (centres unmarked) [3A′, 1-benzyl-1-(1-((2,6-dimethylphenyl)amino)-1-oxobutan-2-yl)piperidin-1-ium bromide]	< 1

Next, values leading:

Papp at 4 h, 50 uM [×10⁻⁶ cm/s]	SMILES
< 1	Cc1cccc(C)c1NC(=O)C[N+]1(Cc2ccccc2)CCCCCC1.[Br-] [4A′, 1-benzyl-1-(2-((2,6-dimethylphenyl)amino)-2-oxoethyl) azepan-1-ium bromide]
< 1	Cc1cccc(C)c1NC(=O)C[N+]1(Cc2ccccc2)CCCC1.[Br-] [2A′, 1-benzyl-1-(2-((2,6-dimethylphenyl)amino)-2-oxoethyl) pyrrolidin-1-ium bromide]
